Experimental data reported in patent publication EP3037106A1, “TXA2 inhibitor as stimulator or inducer of MHC Class I cross-presentation” (INSTITUT PASTEUR, priority 2014, dated 2016).
Entries after “also recorded” stand apart in the source; their conditions may differ.

Key:
[1] = tested on: bone marrow derived dendritic cells (BMDCs); experiment: B3Z cross-priming experiments (cross-presentation of ovalbumin); assay type: cell-based, C57/black-6 mice; conditions: 15 minutes indomethacin 1mM or lactacystine 3µM, serial dilutions of ovalbumin 4 hours, B3Z hybridoma cells 1:1 overnight
Experimental: B3Z cross-priming experiments - 50,000 BMDCs per well were seeded on poly-L-lysine coated 96 well plates. After treatment with DMSO, 3µM lactacystine, or 1mM indomethacin for 15 minutes in RPMI-1640 complemented with 10% v/v fetal calf serum and 50 µg/ml penicillin/streptomycin at 37°C, cells were incubated with serial dilutions (from 3 to 0.0275 mg/ml) of ovalbumin (EUROMEDEX) for 4 hours. Triplicates were performed for each concentration and serial dilutions of the SIINFEKL 257-264 peptide (POLYPEPTIDE GROUP) were used as positive control (dilutions 1/10 starting from 0.1µg/ml). After 3 washes, cells are incubated overnight with 50,000 B3Z hybridoma cells at 37°C, washed once and subjected to the chlorophenol red-D-galactopyranoside (CPRG) detergent mix containing 100mM β-mercaptoethanol, 100mM MgCl2, 0.125% NP40 and 0.15mM CPRG at 37°C for 4 hours. OD 492 as indicator of β-galactosidase (lacZ) activity produced under the control of the interleukin 2 promoter was subsequently measured by plate reader. Data were obtained from 3 independent experiments and plotted by GRAPHPAD PRISM (error bars: standard deviation).

[2] = at 37°C; cited from earlier work
[3] = tested on: bone marrow derived macrophages (BMMs); experiment: FRET assay for antigen cytosolic transfer (CCF4-AM/β-lactamase) in bone marrow derived macrophages; assay type: cell-based, C57/black-6 mice; conditions: for transfer of β-lactamase to the cytosol (450/535 nm ratio, CCF4 cleavage): compound 15 minutes at 37°C (AACOCF3 0.25mM, baïcalein 1mM, indomethacin 1mM, sulindac sulphide 1mM, ICI192605 1mM, arachidonic acid 80µM), then 1 mg/ml β-lactamase 90 minutes at 37°C; for effect on indomethacin induced transfer of β-lactamase to the cytosol: indomethacin 1mM 15 minutes, then β-lactamase with wortmannin 0.5µM, radicicol 25µM or Pyr41 10µM for 90 minutes at 37°C; for reversal of inhibitor-induced antigen transfer to the cytosol (complementation): after indomethacin 1mM or AACOCF3 0.25mM, diMePGE2 or U46619 10µM added with β-lactamase for 90 minutes at 37°C
Experimental: Primary Cells and Mice - Bone marrow derived dendritic cells and macrophages were isolated by flushing femur and tibia from 6 to 9 weeks old C57/black-6 mice with ROSWELL PARK MEMORIAL INSTITUTE-1640 (RPMI-1640) supplemented with GLUTAMAX using 5 ml syringes (BD PLASTIPAK) and 0.5 x 16 mm needles 25G 5/8 (BD MicroLance). After centrifugation at 1000 rpm for 4 minutes, cells were resuspended in 1.66% NH4Cl, and put at 4°C for 10 minutes. After centrifugation at 1,000 rpm for 4 minutes, cells were quantified and incubated at 37°C/5% CO2 for 7 to 10 days in RPMI-1640 with GLUTAMAX containing 10% v/v fetal calf serum (GIBCO) and 50µg/ml penicillin/streptomycin (GIBCO). Granulocytes and macrophages-colony stimulating factor (GM-CSF, MILTENIY BIOTEC) and macrophages-colony stimulating factor (M-CSF, PREPROTECH) were added at day 0 at a concentration of 50 ng/ml in order to allow dendritic cells or macrophages differentiation. Dendritic cells were replated every 3 days adding each time fresh GM-CSF. Macrophages were supplemented with fresh M-CSF at day 4 and replated at day 7 with M-CSF at 25ng/ml. Plasmacytoïd and conventional dendritic cells were isolated from C57/black-6 mice spleen using a plasmacytoïd dendritic cell isolation kit (MILTENYI BIOTEC) and a CD8+ dendritic cell isolation kit (MILTENYI BIOTEC). BMDCs, pDCs and cDCs were adhered on 0.01% poly-lysine coated plates in phosphate buffer saline (PBS).
(§1) FRET assay for antigen cytosolic transfer - 30,000 to 50,000 cells were seeded on 96 well plates and loaded in a mix containing 3.3µM CCF4-AM (INVITROGEN), 1mM probenecid (SIGMA) and 1.5µl solution B (INVITROGEN) in EM buffer (120mM NaCl, 7mM KCI, 1.8mM CaCl2, 0.8mM MgCl2, 5mM glucose and 25mM HEPES at pH 7.3) in a final volume of 30 µl at 37°C. Following 1 mg/ml β-lactamase incubation in EM buffer, cells were washed with 1mM PBS/probenecid and imaged in EM buffer containing 1mM probenecid.
(§2) Fluorescence microscopy and image analysis - All acquisitions were performed on a NIKON TI WIDEFIELD microscope with a 20X N-Plan Objective. Experiments in triplicates were repeated at least 3 times independently for each condition using 25 pictures per replicate randomly and automatically. Image analysis was performed using custom-designed algorithms as described in Ray et al. 2010 (Cell Microbiol. 12(4): 545-556) and Simeone et al. 2012 (PLoS Pathog. 8(2): e1002507). Briefly, the 450 and 535 nm emission signals were scored automatically for each individual cells on a large set of images using METAMORPH. The quantitative parameters were then exported as an EXCEL file in which the ratio between the intensity of the 450 and 535 nm emission signals were presented as an average of the ratio in the whole cell population. After algorithm processing, mean ratios 450/535 nm from different replicates were obtained and pooled together as an average and the status of cytosolic transfer was assessed. Error bars represent standard deviation.

HeLa cells = experiment: FRET assay for antigen cytosolic transfer (CCF4-AM/β-lactamase) in HeLa cells; assay type: cell-based; conditions: indomethacin 1mM 15 minutes at 37°C, 1 mg/ml β-lactamase 90 minutes
[4] = tested on: bone marrow derived macrophages (BMMs); experiment: Cytosolic delivery of fluorescent antigens (Cy3-dextran, Cy3-β-lactamase, Cy3) by widefield microscopy; assay type: cell-based, C57/black-6 mice; conditions: indomethacin 1mM 15 minutes; for transfer of fluorescent dextran to the cytosol: 10-kDa Cy3-dextran 1 mg/ml for 90 minutes; for transfer of Cy3-labelled β-lactamase to the cytosol: Cy3-Bla 0.2 mg/ml for 90 minutes
[5] = tested on: BV2 macrophages-like cells; experiment: FRET assay for antigen cytosolic transfer (CCF4-AM/β-lactamase) in BV2 macrophage like cells; assay type: cell-based, Murine; conditions: indomethacin 1mM 15 minutes; for indomethacin induced transfer of β-lactamase adsorbed to beads or expressed by E. coli: increasing amount of beads adsorbed or E. coli expressed β-lactamase at 37°C for 90 minutes; for indomethacin induced cytosolic transfer as a function of external β-lactamase concentration: increasing amount of β-lactamase at 37°C for 90 minutes
Experimental: Cell lines - Murine Raw and BV2 macrophages like cells were cultured in RPMI-1640 with GLUTAMAX (GIBCO) containing 10% v/v fetal calf serum (GIBCO) and 50 µg/ml penicillin/streptomycin (GIBCO). B3Z were cultured in the same medium but supplemented with 1mg/ml G418 (SIGMA) and 0.4 mg/ml hygromycin B (SIGMA). JAWS-II cells were cultured in Iscove's Modified Dulbecco's Media (IMDM) with L-Glutamine and 25mM HEPES containing 10% v/v fetal calf serum (GIBCO), 50 µg/ml penicillin/streptomycin (GIBCO) and 5ng/ml GM-CSF. All cell lines were maintained at 37°C and 5% CO2.
Preparation of beads and bacteria - E. coli DH5α were used expressing β-lactamase from a pBAD18 plasmid. After PBS washing, bacteria were re-suspended in EM buffer and the MOI was calibrated by measuring the absorbance of the overnight culture at OD 600nm. 3µm polystyrene beads (TEBU-BIO) were washed once before adsorption with β-lactamase at 4°C on a rotating wheel overnight. After PBS washing, beads were re-suspended in PBS buffer.
as §1, §2

For CC(=O)N[C@@H](CSC(=O)[C@]1([C@@H](O)C(C)C)NC(=O)[C@H](C)[C@@H]1O)C(=O)O [lactacystin], the “cross-presentation of ovalbumin (B3Z lacZ activity, CPRG)” value (from here on “cross-presentation of ovalbumin”) [1] was “do not cross-present ovalbumin”.

In the case of CCCCC[C@H](O)/C=C/[C@H]1O[C@H]2C[C@H](O2)[C@@H]1C/C=C\CCCC(=O)O [TXA2, Thromboxane A2], the half-life [2] is given as “less than one minute”.

For O=C(O)CC/C=C\CC1COC(c2ccccc2Cl)OC1c1ccccc1O (stereo not drawn) [ICI192605, 4-(Z)-6-(2-o-Chlorophenyl-4-o-hydroxyphenyl-1,3-dioxan-cis-5-yl)hexenoic acid], the “transfer of β-lactamase to the cytosol (450/535 nm ratio, CCF4 cleavage)” value (“transfer … (450/535 nm ratio, CCF4 cleavage)” below) [3] was “led to a robust antigen transfer”.

For C/C=C/[C@H]1O[C@@](O)([C@@H](C)[C@H](O)[C@H](C)[C@H]2OC(=O)/C(OC)=C/C(C)=C/[C@@H](C)[C@@H](O)[C@@H](C)[C@@H](O)[C@H](C)C/C(C)=C/C=C/[C@@H]2OC)C[C@@H](O[C@H]2C[C@@H](O)[C@H](OC(N)=O)[C@@H](C)O2)[C@@H]1C [conB, Concanamycin B], the “cytosolic transfer of β-lactamase on increased endosomal antigen stability” value ([3]; concanamycin B 25nM or protease inhibitors 1X with β-lactamase for 90 minutes at 37°C) was “neither conB nor PI incubation led to any cytosolic transfer of β-lactamase”.

With CCCCC/C=C\C/C=C\C/C=C\C/C=C\CCCC(=O)C(F)(F)F [AACOCF3, 1,1,1-trifluoro-6Z,9Z,12Z,15Z-heneicosatetraen-2-one] the “transfer … (450/535 nm ratio, CCF4 cleavage)” value [3] was “dramatically and robustly boosted transfer of the model antigen β-lactamase to the cytosol”.

In the case of CCOC(=O)c1ccc(N2NC(=O)/C(=C/c3ccc([N+](=O)[O-])o3)C2=O)cc1 [Pyr41], the “effect on indomethacin induced transfer of β-lactamase to the cytosol” value [3] is reported as “decreased cytosolic antigen transfer induced by indomethacin; also recorded: restrained”.

For C[C@@H]1C[C@H]2O[C@@H]2/C=C\C=C\C(=O)Cc2c(Cl)c(O)cc(O)c2C(=O)O1 [radicicol], the “effect on indomethacin induced transfer of β-lactamase to the cytosol” value [3] was “restrained”.

For CCCCC/C=C\C/C=C\C/C=C\C/C=C\CCCC(=O)O [arachidonic acid], the “transfer … (450/535 nm ratio, CCF4 cleavage)” value [3] was “triggered cytosolic access of our model antigen β-lactamase”.

With COc1ccc2c(c1)c(CC(=O)O)c(C)n2C(=O)c1ccc(Cl)cc1 [indomethacin, 1-(4-chlorobenzoyl)-5-methoxy-2-methyl-1H-indole-3-acetic acid] the “cross-presentation of ovalbumin” value [1] was “displayed enhanced capacities for cross-priming compared to the DMSO control”, the “cross-presentation of ovalbumin” value ([1]; listed as Indomethacin) was “promotes cross-presentation of ovalbumin” and the “transfer of β-lactamase to the cytosol in HeLa cells” value (HeLa cells) was “no cytosolic β-lactamase delivery”. For the same compound, the “transfer of β-lactamase to the cytosol in HeLa cells” value (HeLa cells; listed as Indomethacin) was “does not trigger the transfer of β-lactamase to the cytosol”, the “transfer of fluorescent dextran to the cytosol” value [4] was “the staining switched to cytosolic staining” and the “transfer of fluorescent dextran to the cytosol” value ([4]; listed as Indomethacin) was “triggers the transfer of Cy3 labeled β-lactamase, dextran and Cy3 to the cytosol”. For the same compound, the “transfer of Cy3 alone to the cytosol” value ([4]; Cy3 0.2 mg/ml for 90 minutes, listed as Indomethacin) was “triggers the transfer of Cy3 labeled β-lactamase, dextran and Cy3 to the cytosol”, the “transfer of Cy3-labelled β-lactamase to the cytosol” value [4] was “induced not only the transfer of Cy3-labelled β-lactamase” and the “transfer of Cy3-labelled β-lactamase to the cytosol” value ([4]; listed as Indomethacin) was “triggers the transfer of Cy3 labeled β-lactamase, dextran and Cy3 to the cytosol”. The “indomethacin induced transfer of β-lactamase adsorbed to beads or expressed by E. coli” value [5] was “same dose-dependency”, the “indomethacin induced transfer of β-lactamase adsorbed to beads or expressed by E. coli” value ([5]; listed as Indomethacin) was “is also able to trigger the transfer of β-lactamase when adsorbed to beads or expressed by E. coli in BV2 macrophages-like cells in a dose dependent manner” and the “indomethacin induced cytosolic transfer as a function of external β-lactamase concentration” value [5] was “dose-dependent on the external concentration of β-lactamase”. The “indomethacin induced cytosolic transfer as a function of external β-lactamase concentration” value ([5]; listed as Indomethacin) was “depends on the external concentration of β-lactamase” and the “transfer … (450/535 nm ratio, CCF4 cleavage)” value [3] was “led to a robust cytosolic transfer of beta-lactamase”.

For CCCCC(C)(C)[C@H](O)/C=C/[C@H]1[C@H](O)CC(=O)[C@@H]1C/C=C\CCCC(=O)O [dimethylPGE2, dimethyl-prostaglandin E2], the “reversal of inhibitor-induced antigen transfer to the cytosol (complementation)” value [3] was “did not lead to a reversal of the effect of antigen transfer to the cytoplasm”.

In the case of CCCCC[C@H](O)/C=C/[C@H]1[C@H](O)CC(=O)[C@@H]1C/C=C\CCCC(=O)O [PGE2, prostaglandin E2], the half-life [2] is listed as “less than one minute”.

With CCCCC[C@H](O)/C=C/[C@@H]1[C@@H](C/C=C\CCCC(=O)O)[C@H]2CO[C@@H]1C2 [U46619] the “reversal of inhibitor-induced antigen transfer to the cytosol (complementation)” value [3] was “reduced the inhibitor-induced antigen transfer to the cytosol”.
